Results published in ChEMBL document CHEMBL5465560, “Selectivity Literature for EUbOPEN Chemogenomic Library” (2024).

Columns and labels:
[1] = target: T1, Inhibitor of nuclear factor kappa-B kinase subunit alpha (Homo sapiens) (UniProt O15111)
T1 sequence (whole entry): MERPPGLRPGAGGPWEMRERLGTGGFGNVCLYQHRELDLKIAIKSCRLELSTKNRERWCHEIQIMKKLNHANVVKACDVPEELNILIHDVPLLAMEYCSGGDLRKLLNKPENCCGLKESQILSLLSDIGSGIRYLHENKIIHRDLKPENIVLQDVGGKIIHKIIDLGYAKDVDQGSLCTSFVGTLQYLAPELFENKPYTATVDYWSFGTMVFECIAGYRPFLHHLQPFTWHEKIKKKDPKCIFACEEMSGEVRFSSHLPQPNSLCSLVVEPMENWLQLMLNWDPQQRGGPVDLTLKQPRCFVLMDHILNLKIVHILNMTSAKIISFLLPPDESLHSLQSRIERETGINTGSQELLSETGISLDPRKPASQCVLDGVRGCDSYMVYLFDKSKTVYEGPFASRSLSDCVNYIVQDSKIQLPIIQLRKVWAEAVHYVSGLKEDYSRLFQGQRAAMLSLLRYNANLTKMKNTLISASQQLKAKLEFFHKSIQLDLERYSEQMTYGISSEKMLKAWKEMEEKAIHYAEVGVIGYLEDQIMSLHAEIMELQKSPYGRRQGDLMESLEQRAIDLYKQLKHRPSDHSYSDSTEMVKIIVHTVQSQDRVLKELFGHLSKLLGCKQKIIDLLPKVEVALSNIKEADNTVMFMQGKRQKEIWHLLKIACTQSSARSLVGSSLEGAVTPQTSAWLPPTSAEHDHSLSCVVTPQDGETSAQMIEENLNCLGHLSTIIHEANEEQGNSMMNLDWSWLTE

[2] = target: Rho-associated protein kinase 2 (Homo sapiens, UniProt O75116); assay: Selectivity interaction (ActivX KiNativ screen (kinase selectivity in THP-1 cell lysates)) EUB0000639a ROCK2; type: subcellular; conditions: lysate
Chain of Rho-associated protein kinase 2 (O75116 whole entry, looked up): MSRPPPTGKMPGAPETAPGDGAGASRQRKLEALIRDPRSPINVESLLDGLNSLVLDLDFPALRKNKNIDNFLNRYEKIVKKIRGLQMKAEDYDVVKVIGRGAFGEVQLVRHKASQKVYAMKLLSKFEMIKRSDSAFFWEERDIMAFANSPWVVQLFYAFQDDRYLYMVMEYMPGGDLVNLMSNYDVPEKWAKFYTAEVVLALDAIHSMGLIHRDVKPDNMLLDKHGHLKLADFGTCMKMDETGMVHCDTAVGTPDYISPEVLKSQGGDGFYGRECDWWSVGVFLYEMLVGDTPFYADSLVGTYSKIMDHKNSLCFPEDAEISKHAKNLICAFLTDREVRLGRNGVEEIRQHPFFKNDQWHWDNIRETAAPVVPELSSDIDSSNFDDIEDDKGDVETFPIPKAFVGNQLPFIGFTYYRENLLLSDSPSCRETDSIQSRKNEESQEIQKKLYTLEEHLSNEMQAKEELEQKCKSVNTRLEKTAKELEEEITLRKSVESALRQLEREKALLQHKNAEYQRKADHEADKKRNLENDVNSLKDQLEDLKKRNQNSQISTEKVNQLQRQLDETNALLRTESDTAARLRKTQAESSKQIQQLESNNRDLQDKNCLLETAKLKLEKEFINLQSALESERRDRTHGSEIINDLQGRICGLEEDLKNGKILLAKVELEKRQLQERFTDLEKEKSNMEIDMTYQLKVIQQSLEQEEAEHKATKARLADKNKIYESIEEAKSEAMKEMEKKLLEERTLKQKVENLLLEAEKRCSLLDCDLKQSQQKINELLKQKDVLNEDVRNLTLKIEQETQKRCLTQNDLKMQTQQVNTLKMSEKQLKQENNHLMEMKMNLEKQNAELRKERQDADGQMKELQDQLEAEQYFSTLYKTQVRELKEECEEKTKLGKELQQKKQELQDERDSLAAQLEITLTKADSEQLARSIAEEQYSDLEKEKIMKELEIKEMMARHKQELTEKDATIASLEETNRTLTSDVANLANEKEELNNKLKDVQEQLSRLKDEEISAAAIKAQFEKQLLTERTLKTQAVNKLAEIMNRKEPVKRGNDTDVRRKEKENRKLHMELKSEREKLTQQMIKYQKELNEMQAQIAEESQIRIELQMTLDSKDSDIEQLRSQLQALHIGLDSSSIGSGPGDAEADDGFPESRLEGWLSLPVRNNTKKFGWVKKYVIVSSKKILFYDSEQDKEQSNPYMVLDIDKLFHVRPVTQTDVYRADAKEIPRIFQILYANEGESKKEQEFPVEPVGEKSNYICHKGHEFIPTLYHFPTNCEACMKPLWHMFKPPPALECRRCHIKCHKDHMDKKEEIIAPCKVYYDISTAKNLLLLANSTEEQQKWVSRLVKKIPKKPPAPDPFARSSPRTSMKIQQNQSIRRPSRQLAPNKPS

[3] = target: Voltage-gated inwardly rectifying potassium channel KCNH2 (Homo sapiens, UniProt Q12809); assay: Selectivity interaction (HERG dofetilide binding assay, human recombinant ) EUB0000877a KCNH2
[4] = target: Casein kinase I isoform alpha (Homo sapiens, UniProt P48729); assay: Selectivity interaction (Kinase panel (Z-LYTE Assay)) EUB0001632a CSNK1A1; conditions: at 10 µM
Chain of Casein kinase I isoform alpha (P48729 2-337 limits assumed): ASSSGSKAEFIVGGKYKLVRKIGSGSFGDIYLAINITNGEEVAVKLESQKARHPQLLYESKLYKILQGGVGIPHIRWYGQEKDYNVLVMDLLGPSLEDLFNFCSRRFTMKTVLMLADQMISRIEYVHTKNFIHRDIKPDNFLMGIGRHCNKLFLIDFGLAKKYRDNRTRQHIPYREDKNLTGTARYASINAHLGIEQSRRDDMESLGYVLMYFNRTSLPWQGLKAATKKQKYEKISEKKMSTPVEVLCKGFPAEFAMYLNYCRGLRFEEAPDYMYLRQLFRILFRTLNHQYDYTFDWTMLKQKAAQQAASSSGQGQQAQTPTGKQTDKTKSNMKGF

[5] = target: Muscarinic acetylcholine receptor M5 (Homo sapiens) (UniProt P08912); assay: Selectivity interaction (GPCR panel (PDSP screen)) EUB0001079a CHRM5; conditions: at 10 µM
[6] = target: Serine/threonine-protein kinase MARK2 (Homo sapiens) (UniProt Q7KZI7); assay: Selectivity interaction (ProQinase) EUB0000171b MARK2
Chain of Serine/threonine-protein kinase MARK2 (Homo sapiens) (Q7KZI7 whole entry): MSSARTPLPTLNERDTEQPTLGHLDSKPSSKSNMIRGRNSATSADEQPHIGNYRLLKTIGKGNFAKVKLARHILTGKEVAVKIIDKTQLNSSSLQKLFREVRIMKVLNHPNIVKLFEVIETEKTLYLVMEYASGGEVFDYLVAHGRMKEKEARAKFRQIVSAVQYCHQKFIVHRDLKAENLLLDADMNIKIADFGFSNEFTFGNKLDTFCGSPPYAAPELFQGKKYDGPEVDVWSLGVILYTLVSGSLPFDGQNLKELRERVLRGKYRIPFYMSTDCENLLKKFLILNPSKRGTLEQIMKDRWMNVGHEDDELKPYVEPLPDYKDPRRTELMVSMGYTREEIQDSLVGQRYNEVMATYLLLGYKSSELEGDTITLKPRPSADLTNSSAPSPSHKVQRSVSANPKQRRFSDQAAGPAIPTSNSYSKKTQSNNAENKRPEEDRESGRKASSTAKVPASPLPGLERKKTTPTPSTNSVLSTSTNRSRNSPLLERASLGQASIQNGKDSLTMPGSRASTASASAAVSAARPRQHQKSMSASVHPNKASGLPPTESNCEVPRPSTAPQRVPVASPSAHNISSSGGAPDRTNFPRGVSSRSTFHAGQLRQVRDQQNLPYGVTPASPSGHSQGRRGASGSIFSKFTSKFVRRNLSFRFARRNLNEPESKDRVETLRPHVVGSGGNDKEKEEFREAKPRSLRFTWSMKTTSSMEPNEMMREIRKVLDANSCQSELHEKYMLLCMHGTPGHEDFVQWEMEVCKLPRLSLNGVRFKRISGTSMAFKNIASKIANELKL

[7] = system: Fibroblast growth factor receptor 1 (Homo sapiens), P11362 [V561M]; assay: (§1) Selectivity interaction (ProQinase) EUB0000171b FGFR1
[8] = target: Fibroblast growth factor receptor 1 (Homo sapiens, UniProt P11362); assay: as §1
Chain of Fibroblast growth factor receptor 1 (P11362 22-822 limits assumed): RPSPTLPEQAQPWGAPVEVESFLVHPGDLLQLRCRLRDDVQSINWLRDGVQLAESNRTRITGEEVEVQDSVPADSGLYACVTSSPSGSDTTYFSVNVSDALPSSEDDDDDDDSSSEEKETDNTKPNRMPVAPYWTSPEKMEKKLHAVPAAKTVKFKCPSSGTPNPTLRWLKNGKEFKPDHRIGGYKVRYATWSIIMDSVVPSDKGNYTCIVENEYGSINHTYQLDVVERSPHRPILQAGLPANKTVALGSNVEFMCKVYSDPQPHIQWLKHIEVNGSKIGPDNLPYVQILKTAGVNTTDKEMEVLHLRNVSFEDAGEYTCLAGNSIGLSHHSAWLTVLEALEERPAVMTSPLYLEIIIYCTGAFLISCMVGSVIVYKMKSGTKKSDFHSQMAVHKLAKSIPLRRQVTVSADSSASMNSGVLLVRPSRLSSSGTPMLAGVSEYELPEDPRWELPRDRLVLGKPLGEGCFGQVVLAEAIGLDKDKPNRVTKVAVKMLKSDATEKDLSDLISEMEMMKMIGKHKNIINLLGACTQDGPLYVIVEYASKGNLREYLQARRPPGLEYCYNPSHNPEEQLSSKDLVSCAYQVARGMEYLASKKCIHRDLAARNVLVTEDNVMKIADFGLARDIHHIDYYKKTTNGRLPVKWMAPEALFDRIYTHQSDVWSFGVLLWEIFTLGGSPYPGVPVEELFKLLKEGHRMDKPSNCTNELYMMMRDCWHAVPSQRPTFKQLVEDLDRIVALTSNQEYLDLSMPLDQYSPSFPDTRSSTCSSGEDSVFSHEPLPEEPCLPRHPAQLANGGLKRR

[9] = target: Casein kinase I isoform epsilon (Homo sapiens, UniProt P49674); assay: Selectivity interaction (ProQinase) EUB0000171b CSNK1E
Chain of Casein kinase I isoform epsilon (P49674 whole entry, looked up, canonical isoform): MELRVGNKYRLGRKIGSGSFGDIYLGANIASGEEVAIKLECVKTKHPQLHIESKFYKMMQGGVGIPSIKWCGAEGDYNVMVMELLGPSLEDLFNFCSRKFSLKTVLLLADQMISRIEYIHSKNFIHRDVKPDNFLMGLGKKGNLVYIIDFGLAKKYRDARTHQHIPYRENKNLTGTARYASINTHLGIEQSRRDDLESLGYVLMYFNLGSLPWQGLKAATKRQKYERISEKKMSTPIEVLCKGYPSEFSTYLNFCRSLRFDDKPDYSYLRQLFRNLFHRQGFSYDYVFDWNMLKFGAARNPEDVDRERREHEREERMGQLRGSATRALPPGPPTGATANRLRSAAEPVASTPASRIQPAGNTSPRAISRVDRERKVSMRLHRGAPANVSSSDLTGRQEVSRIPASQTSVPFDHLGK

[10] = target: Receptor tyrosine-protein kinase erbB-3 (Homo sapiens) (UniProt P21860); assay: Selectivity interaction (KinomeScan (DiscoverX)) EUB0000092b ERBB3; conditions: at 10 µM
Chain of Receptor tyrosine-protein kinase erbB-3 (Homo sapiens) (P21860 whole entry): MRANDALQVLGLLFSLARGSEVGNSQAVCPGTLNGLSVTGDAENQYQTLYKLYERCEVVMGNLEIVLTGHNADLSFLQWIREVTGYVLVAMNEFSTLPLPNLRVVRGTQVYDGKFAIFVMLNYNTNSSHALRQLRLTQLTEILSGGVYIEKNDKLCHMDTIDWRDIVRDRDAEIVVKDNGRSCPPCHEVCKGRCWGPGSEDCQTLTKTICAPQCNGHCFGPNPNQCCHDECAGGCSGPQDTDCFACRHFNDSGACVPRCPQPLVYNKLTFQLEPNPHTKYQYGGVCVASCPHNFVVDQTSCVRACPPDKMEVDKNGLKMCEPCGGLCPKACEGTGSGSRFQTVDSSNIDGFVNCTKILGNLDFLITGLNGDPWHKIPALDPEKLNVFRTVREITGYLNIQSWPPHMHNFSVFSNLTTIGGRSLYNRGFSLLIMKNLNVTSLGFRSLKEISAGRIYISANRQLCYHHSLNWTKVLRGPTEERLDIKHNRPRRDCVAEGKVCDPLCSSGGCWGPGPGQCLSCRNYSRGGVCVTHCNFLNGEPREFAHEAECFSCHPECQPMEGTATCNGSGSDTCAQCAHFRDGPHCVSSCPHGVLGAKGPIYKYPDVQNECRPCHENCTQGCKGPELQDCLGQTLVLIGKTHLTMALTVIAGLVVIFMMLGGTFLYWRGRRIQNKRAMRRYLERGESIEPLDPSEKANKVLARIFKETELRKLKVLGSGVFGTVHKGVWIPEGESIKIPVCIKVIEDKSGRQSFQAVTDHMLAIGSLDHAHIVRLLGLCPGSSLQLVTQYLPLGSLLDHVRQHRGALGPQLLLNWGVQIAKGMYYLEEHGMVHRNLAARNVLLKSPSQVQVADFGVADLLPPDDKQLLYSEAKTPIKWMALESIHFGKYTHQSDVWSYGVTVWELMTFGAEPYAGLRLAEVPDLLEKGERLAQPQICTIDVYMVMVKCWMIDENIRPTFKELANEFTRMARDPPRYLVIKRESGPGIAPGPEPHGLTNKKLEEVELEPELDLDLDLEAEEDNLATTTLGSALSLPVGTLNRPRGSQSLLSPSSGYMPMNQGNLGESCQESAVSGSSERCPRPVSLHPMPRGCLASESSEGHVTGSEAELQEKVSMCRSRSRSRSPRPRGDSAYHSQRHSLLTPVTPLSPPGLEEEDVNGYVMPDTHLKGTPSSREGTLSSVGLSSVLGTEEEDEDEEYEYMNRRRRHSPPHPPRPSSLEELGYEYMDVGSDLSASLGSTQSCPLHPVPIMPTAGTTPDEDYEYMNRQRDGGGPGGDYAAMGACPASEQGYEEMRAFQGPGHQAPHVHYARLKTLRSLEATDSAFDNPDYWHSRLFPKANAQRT

[11] = target: T2, Phosphatidylinositol 5-phosphate 4-kinase type-2 gamma (Homo sapiens) (UniProt Q8TBX8); assay: Selectivity interaction (ActivX KiNativ screen (ex vivo kinase selectivity in human PBMCs)) EUB0001619a PIP4K2C; type: cell-based; conditions: PBMC, at 1 µM
T2 sequence (whole entry): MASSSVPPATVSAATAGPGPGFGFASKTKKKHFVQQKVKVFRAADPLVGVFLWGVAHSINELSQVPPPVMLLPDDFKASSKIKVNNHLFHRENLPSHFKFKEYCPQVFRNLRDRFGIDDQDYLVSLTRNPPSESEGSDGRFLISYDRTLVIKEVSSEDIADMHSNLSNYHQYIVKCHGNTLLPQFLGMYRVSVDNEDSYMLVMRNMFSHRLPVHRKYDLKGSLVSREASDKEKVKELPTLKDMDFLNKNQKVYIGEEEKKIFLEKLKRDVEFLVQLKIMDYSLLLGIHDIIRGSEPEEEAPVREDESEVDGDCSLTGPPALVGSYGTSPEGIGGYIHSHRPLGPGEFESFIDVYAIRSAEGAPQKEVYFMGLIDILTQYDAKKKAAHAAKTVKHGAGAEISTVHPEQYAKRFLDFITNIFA

[12] = target: T3, Serine/threonine-protein kinase 3 (Homo sapiens) (UniProt Q13188); assay: Selectivity interaction (ActivX KiNativ screen (ex vivo kinase selectivity in human PBMCs)) EUB0001619a STK3; type: cell-based; conditions: PBMC, at 1 µM
T3 sequence (whole entry): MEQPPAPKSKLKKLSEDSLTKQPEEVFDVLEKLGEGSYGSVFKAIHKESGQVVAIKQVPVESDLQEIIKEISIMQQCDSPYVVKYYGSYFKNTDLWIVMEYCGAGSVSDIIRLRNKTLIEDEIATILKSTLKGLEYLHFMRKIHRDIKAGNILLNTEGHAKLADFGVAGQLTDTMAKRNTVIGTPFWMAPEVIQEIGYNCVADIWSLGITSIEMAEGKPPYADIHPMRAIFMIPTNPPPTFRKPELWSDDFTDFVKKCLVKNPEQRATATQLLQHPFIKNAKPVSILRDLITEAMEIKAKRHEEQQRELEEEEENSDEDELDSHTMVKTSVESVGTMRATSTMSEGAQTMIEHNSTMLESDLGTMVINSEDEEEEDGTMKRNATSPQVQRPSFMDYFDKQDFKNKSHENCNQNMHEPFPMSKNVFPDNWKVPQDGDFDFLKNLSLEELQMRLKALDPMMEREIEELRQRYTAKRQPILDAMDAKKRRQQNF

[13] = target: Mitogen-activated protein kinase 8 (Homo sapiens, UniProt P45983); assay: Selectivity interaction (ActivX KiNativ screen (ex vivo kinase selectivity in human PBMCs)) EUB0001619a MAPK8; type: cell-based; conditions: PBMC, at 1 µM
[14] = target: Non-receptor tyrosine-protein kinase TYK2 (Homo sapiens, UniProt P29597); assay: Selectivity interaction (KinomeScan (DiscoverX)) EUB0001619a TYK2; conditions: at 1 µM
[15] = target: Tyrosine-protein kinase Fes/Fps (Homo sapiens) (UniProt P07332); assay: Selectivity interaction (SelectScreen profiling (Invitrogen)) EUB0000607a FES; conditions: at 2 µM
[16] = target: Receptor tyrosine-protein kinase erbB-3 (Homo sapiens) (UniProt P21860); assay: Selectivity interaction (KinomeScan (DiscoverX)) EUB0000607a ERBB3; conditions: at 10 µM

Cc1cnc(Nc2ccc(F)cc2Cl)nc1-c1c[nH]c(C(=O)N[C@H](CO)c2cccc(Cl)c2)c1
% of inhibition [1]: 0%

CC[C@@H]1[C@H](F)C(=O)N[C@@H]1COc1nccc2cc(C(N)=O)c(OC)cc12 [ZIMLOVISERTIB]
% of inhibition ([2]; at 0.01 µM): 12.6%
% of inhibition ([2]; at 0.04 µM): -4.3%
% of inhibition ([2]; at 0.2 µM): -10.6%
% of inhibition ([2]; at 1 µM): 18.3%
% of inhibition ([2]; at 5 µM): 53.9%

CCC(=O)N1CC[C@H](Nc2ncnc3c2CN(c2cnc(OC)c(C(F)(F)F)c2)CC3)C1 [LENIOLISIB]
IC50 [3]: > 30 µM

Cn1cc(-n2cnc3c(NCc4nc5cc(Cl)c(Cl)cc5[nH]4)nc(N4CCOCC4)nc32)cn1
% of control [4]: 4.57%

Nc1cnc(N2CCc3cc(S(=O)(=O)Nc4c(F)cc(Cl)cc4F)cc(N4CCCC4=O)c32)nc1 [TP-020n]
% of inhibition [5]: 1.45%

C=CC(=O)Nc1cccc(C(=O)Nc2ccc(Nc3cc(-c4[nH]c(SC)nc4C)ccn3)cc2)c1
% of control ([6]; at 1 µM): 93%
% of control ([6]; at 5 µM): 84%
% of control ([7]; at 1 µM): 99%
% of control ([7]; at 5 µM): 65%
% of control ([8]; at 1 µM): 105%
% of control ([8]; at 5 µM): 87%
% of control ([9]; at 1 µM): 57%
% of control ([9]; at 5 µM): 21%

CCC(=O)N1CCN(c2ccc(-n3c(=O)ccc4cnc5ccc(-c6cnc7ccccc7c6)cc5c43)cc2C(F)(F)F)CC1
% of control [10]: 44%

N#Cc1cccc(-c2c[nH]c3ncnc(N4CCOCC4)c23)c1
% of inhibition [11]: 58%
% of inhibition [12]: 71%
% of inhibition [13]: 5%
% of control [14]: 69%

CNC(=O)Nc1ccc(-c2nc(N3CC4CCC(C3)O4)c3cnn(C4CCC5(CC4)OCCO5)c3n2)cc1
% of inhibition [15]: -1%
% of control [16]: 100%
